Measured values taken from PubChem BioAssay AID2060492 (Molecular Pharmacology Branch, DTP, NCI, 2025).
One block for each molecule: values may come before it.

Tested on: 695427-040-R-J1-PDC complex spheroids, viability percent T/C
Experiment: Anticancer human tumor 695427-040-R-J1-PDC patient-derived colon adenocarcinoma cell line growth inhibition [GQUAD]
Conditions: for IC50: curve of first compound; for viability, T/C: stronger effect = lower value
Summary of the method: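 Multi-cell-type spheroids of tumor cells with HUVEC and mesenchymal stem cells, treated with drug combinations. Concentrations descend in half-log steps from near clinical Cmax, or from 10 microM where Cmax is unknown; viability read-out.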

[1] = second compound 0.0316 µM, first compound 0.0316 µM
[2] = second compound 0.0316 µM, first compound 0.1 µM
[3] = second compound 0.0316 µM, first compound 0.316 µM
[4] = second compound 0.0316 µM, first compound 1 µM
[5] = second compound 0.0316 µM, first compound 3.16 µM
[6] = second compound 0.0316 µM, first compound 10 µM
[7] = second compound 0.1 µM, first compound 0.0316 µM
[8] = second compound 0.1 µM, first compound 0.1 µM
[9] = second compound 0.1 µM, first compound 0.316 µM
[10] = second compound 0.1 µM, first compound 1 µM
[11] = second compound 0.1 µM, first compound 3.16 µM
[12] = second compound 0.1 µM, first compound 10 µM
[13] = second compound 0.316 µM, first compound 0.0316 µM
[14] = second compound 0.316 µM, first compound 0.1 µM
[15] = second compound 0.316 µM, first compound 0.316 µM
[16] = second compound 0.316 µM, first compound 1 µM
[17] = second compound 0.316 µM, first compound 3.16 µM
[18] = second compound 0.316 µM, first compound 10 µM
[19] = second compound 1 µM, first compound 0.0316 µM
[20] = second compound 1 µM, first compound 0.1 µM
[21] = second compound 1 µM, first compound 0.316 µM
[22] = second compound 1 µM, first compound 1 µM
[23] = second compound 1 µM, first compound 3.16 µM
[24] = second compound 1 µM, first compound 10 µM
[25] = second compound 3.16 µM, first compound 0.0316 µM
[26] = second compound 3.16 µM, first compound 0.1 µM
[27] = second compound 3.16 µM, first compound 0.316 µM
[28] = second compound 3.16 µM, first compound 1 µM
[29] = second compound 3.16 µM, first compound 3.16 µM
[30] = second compound 3.16 µM, first compound 10 µM
[31] = second compound 10 µM, first compound 0.0316 µM
[32] = second compound 10 µM, first compound 0.1 µM
[33] = second compound 10 µM, first compound 0.316 µM
[34] = second compound 10 µM, first compound 1 µM
[35] = second compound 10 µM, first compound 3.16 µM
[36] = second compound 10 µM, first compound 10 µM
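Note: spheroids exposed to compounds for seven days before readout.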

IC50 (second compound 0.0316 µM): > 10000 nM
IC50 (second compound 0.1 µM): > 10000 nM
IC50 (second compound 0.316 µM): > 10000 nM
IC50 (second compound 1 µM): 7260 nM
IC50 (second compound 3.16 µM): 2610 nM
IC50 (second compound 10 µM): < 31.6 nM
Compound: CC(C)n1c(=O)n(C)c2cnc3cc(F)c(-c4ccc(OCCCN5CCCCC5)nc4)cc3c21 + Cc1cnc(CNC(=O)c2c(=O)c3ccc(N4CCCN(C)CC4)nc3n3c2sc2ccccc23)cn1
viability, T/C [1]: 80.7%
viability, T/C [2]: 80.8%
viability, T/C [3]: 88%
viability, T/C [4]: 80.9%
viability, T/C [5]: 84.6%
viability, T/C [6]: 56%
viability, T/C [7]: 87.1%
viability, T/C [8]: 76.8%
viability, T/C [9]: 91.7%
viability, T/C [10]: 66.3%
viability, T/C [11]: 84.6%
viability, T/C [12]: 51.5%
viability, T/C [13]: 89%
viability, T/C [14]: 49.6%
viability, T/C [15]: 75.8%
viability, T/C [16]: 71.6%
viability, T/C [17]: 85.4%
viability, T/C [18]: 56.3%
viability, T/C [19]: 90%
viability, T/C [20]: 64.4%
viability, T/C [21]: 69.9%
viability, T/C [22]: 68.6%
viability, T/C [23]: 73.5%
viability, T/C [24]: 41.1%
viability, T/C [25]: 51.5%
viability, T/C [26]: 47.4%
viability, T/C [27]: 57.8%
viability, T/C [28]: 54.6%
viability, T/C [29]: 49%
viability, T/C [30]: 20.4%
viability, T/C [31]: 43.5%
viability, T/C [32]: 40.3%
viability, T/C [33]: 45.8%
viability, T/C [34]: 42.6%
viability, T/C [35]: 43.1%
viability, T/C [36]: 0.95%

IC50 (second compound 0.0316 µM): 120 nM
IC50 (second compound 0.1 µM): 68.4 nM
IC50 (second compound 0.316 µM): 79.2 nM
IC50 (second compound 1 µM): 51.9 nM
IC50 (second compound 3.16 µM): < 31.6 nM
IC50 (second compound 10 µM): < 31.6 nM
Compound: CC1COCCN1c1cc(-c2ccnn2C)c2ccnc(-c3ccn[nH]3)c2n1 (stereo unspecified) + Cc1cnc(CNC(=O)c2c(=O)c3ccc(N4CCCN(C)CC4)nc3n3c2sc2ccccc23)cn1
viability, T/C [1]: 62.7%
viability, T/C [2]: 52%
viability, T/C [3]: 38.8%
viability, T/C [4]: 29.9%
viability, T/C [5]: 28.1%
viability, T/C [6]: 26.6%
viability, T/C [7]: 59.9%
viability, T/C [8]: 44.5%
viability, T/C [9]: 36.2%
viability, T/C [10]: 25.6%
viability, T/C [11]: 29.4%
viability, T/C [12]: 29.2%
viability, T/C [13]: 69.3%
viability, T/C [14]: 43.2%
viability, T/C [15]: 37.3%
viability, T/C [16]: 28%
viability, T/C [17]: 30%
viability, T/C [18]: 24.9%
viability, T/C [19]: 58.8%
viability, T/C [20]: 35.6%
viability, T/C [21]: 34.1%
viability, T/C [22]: 22.7%
viability, T/C [23]: 27.7%
viability, T/C [24]: 14.8%
viability, T/C [25]: 21.8%
viability, T/C [26]: 31.4%
viability, T/C [27]: 28.9%
viability, T/C [28]: 20.6%
viability, T/C [29]: 20.5%
viability, T/C [30]: 11.5%
viability, T/C [31]: 24.9%
viability, T/C [32]: 19.6%
viability, T/C [33]: 24.8%
viability, T/C [34]: 16.6%
viability, T/C [35]: 13.6%
viability, T/C [36]: 1.36%

IC50 (second compound 0.0316 µM): 277 nM
IC50 (second compound 0.1 µM): 220 nM
IC50 (second compound 0.316 µM): 91.1 nM
IC50 (second compound 1 µM): < 31.6 nM
IC50 (second compound 3.16 µM): < 31.6 nM
IC50 (second compound 10 µM): < 31.6 nM
Compound: CC1COCCN1c1cc(C2(O)CC3CCC(C2)O3)c2cnn(-c3ccn[nH]3)c2n1 (stereo unspecified) + Cc1cnc(CNC(=O)c2c(=O)c3ccc(N4CCCN(C)CC4)nc3n3c2sc2ccccc23)cn1
viability, T/C [1]: 75.1%
viability, T/C [2]: 63%
viability, T/C [3]: 49.8%
viability, T/C [4]: 31.1%
viability, T/C [5]: 26%
viability, T/C [6]: 18.1%
viability, T/C [7]: 79%
viability, T/C [8]: 57%
viability, T/C [9]: 47%
viability, T/C [10]: 34.1%
viability, T/C [11]: 30.3%
viability, T/C [12]: 20.9%
viability, T/C [13]: 81.7%
viability, T/C [14]: 41.3%
viability, T/C [15]: 40.2%
viability, T/C [16]: 26.8%
viability, T/C [17]: 26.4%
viability, T/C [18]: 18.4%
viability, T/C [19]: 38.5%
viability, T/C [20]: 41.1%
viability, T/C [21]: 31.5%
viability, T/C [22]: 29.7%
viability, T/C [23]: 28.2%
viability, T/C [24]: 14.3%
viability, T/C [25]: 30.2%
viability, T/C [26]: 35%
viability, T/C [27]: 28.5%
viability, T/C [28]: 16.9%
viability, T/C [29]: 19.5%
viability, T/C [30]: 4.04%
viability, T/C [31]: 22.1%
viability, T/C [32]: 22.2%
viability, T/C [33]: 19.3%
viability, T/C [34]: 15.2%
viability, T/C [35]: 8.74%
viability, T/C [36]: 0.42%
